Measurements as given in patent US20210121432A1, “Bambuterol for the Treatment of Alzheimer's Disease” (priority 2018, published 2021).

Columns and labels:
[1] = tested on: hyperphosphorylated Tau (AT100) in MAP-2 positive neurons; assay: Plate A: phospho Tau (AT100) evaluation in MAP-2 hippocampal neurons injured with Aβ1-42; format: cell-based, rat; settings: Aβ 20 μM 24 h, FIG. 2D
Description: (§1) Bambuterol, referred to as MR36621 in the experiments was tested on rat primary hippocampal neurons that were injured with Aβ. Donezpil was used as a reference test compound.
(§2) Rat hippocampal neurons were cultured as described by Callizot et al., Operational dissection of β-amyloid cytopathic effects of cultured neurons, J. Neurosci. Res. 2013 May; 91(5): 706-16. Pregnant female rats of 17 days gestation (Rats Wistar; Janvier Labs France) were euthanized using a deep anesthesia with a CO2 chamber followed by a cervical dislocation. Fetuses were removed from the uterus and immediately placed in ice-cold L15 Leibovitz medium with a 2% penicillin (10,000 U/ml) and streptomycin (10 mg/ml) solution (PS) and 1% bovine serum albumin (BSA).
(§3) Hippocampal neurons were treated for 20 min at 37° C. with a trypsin-EDTA solution at a final concentration of 0.05% trypsin and 0.02% EDTA. The dissociation was stopped by adding Dulbecco's modified Eagle's medium (DMEM) with 4.5 g/liter of glucose, containing DNAse I grade II (final concentration 0.5 mg/ml) and 10% fetal calf serum (FCS). Cells were mechanically dissociated by three forced passages through the tip of a 10-ml pipette and then centrifuged at 515×g for 10 min at 4° C.
The supernatant was discarded, and the pellet was resuspended in a defined culture medium consisting of Neurobasal medium with a 2% solution of B27 supplement, 2 mmol/liter of L-glutamine, 2% of PS solution, and 10 ng/ml of brain-derived neurotrophic factor (BDNF). Viable cells were counted in a Neubauer cytometer, using the trypan blue exclusion test. Cells were seeded at a density of 20,000 per well in 96-well plates precoated with poly-L-lysine and cultured at 37° C. in an air (95%)-CO2 (5%) incubator. The medium was changed every 2 days. […]
(§4) Bambuterol was placed in a culture medium and preincubated for 1 hour before Aβ application. An Aβ1-42 preparation was added to a final concentration of 20 or 2.5 μM (=2 μM or 0.25 μM of AβO, evaluated by automatic WB) diluted in control medium in presence of the compound. […]

[2] = tested on: rat primary hippocampal neurons injured with Aβ; assay: Plate B: synapses evaluation (PSD95/SYN) in hippocampal neurons injured with Aβ1-42; format: cell-based; settings: Aβ 2.5 μM 24 h, FIG. 3
Description: as §1
Rat hippocampal neurons were cultured as described by Callizot et al., Operational dissection of β-amyloid cytopathic effects of cultured neurons, J. Neurosci. Res. 2013 May; 91(5): 706-16. Pregnant female rats of 17 days gestation (Rats Wistar; Janvier Labs France) were euthanized using a deep anesthesia with a CO2 chamber followed by a cervical dislocation. […]
The supernatant was discarded, and the pellet was resuspended in a defined culture medium consisting of Neurobasal medium with a 2% solution of B27 supplement, 2 mmol/liter of L-glutamine, 2% of PS solution, and 10 ng/ml of brain-derived neurotrophic factor (BDNF). Viable cells were counted in a Neubauer cytometer, using the trypan blue exclusion test. […]
as §4
The following endpoints were assessed: • Total number of synapses (overlapping between PSD95/SYN).

[3] = tested on: rat primary hippocampal neurons injured with Aβ; assay: Plate A: survival and neurite network of MAP-2 hippocampal neurons injured with Aβ1-42; format: cell-based; settings: for Neurite length per neuron (total neurite network normalized by the number of neurons): FIG. 2C
Description: as §1, §2, §3
The supernatant was discarded, and the pellet was resuspended in a defined culture medium consisting of Neurobasal medium with a 2% solution of B27 supplement, 2 mmol/liter of L-glutamine, 2% of PS solution, and 10 ng/ml of brain-derived neurotrophic factor (BDNF). Viable cells were counted in a Neubauer cytometer, using the trypan blue exclusion test. Cells were seeded at a density of 20,000 per well in 96-well plates precoated with poly-L-lysine and cultured at 37° C. in an air (95%)-CO2 (5%) incubator. The medium was changed every 2 days.
The hippocampal neurons were exposed with A solutions after 17 days of culture. An Aβ1-42 preparation was done following the procedure described by Callizot et al., 2013. Aβ1-42 is a forty-two amino acid form of amyloid β in cerebrospinal fluid and is recognized by persons of ordinary skill in the art as a biomarker for Alzheimer's disease.
Aβ1-42 peptide was dissolved in the defined culture medium mentioned above, at an initial concentration of 40 μM. This solution was gently agitated for 3 days at 37° C. in the dark and immediately used after being properly diluted in culture medium to the concentrations used (20 μM (plate 13) or 2.5 μM (plate 14) corresponding to 2 μM or 0.25 μM of oligomers (AβO) respectively).
Bambuterol was placed in a culture medium and preincubated for 1 hour before Aβ application. An Aβ1-42 preparation was added to a final concentration of 20 or 2.5 μM (=2 μM or 0.25 μM of AβO, evaluated by automatic WB) diluted in control medium in presence of the compound.
Table I identifies two plates that exposed two concentrations of Aβ to different concentrations of bambuterol. The bambuterol was preincubated 1 hour before the application of Aβ.
Twenty-four hours after intoxication, the hippocampal neurons were fixed by a cold solution of ethanol (95%) and acetic acid (5%) for 5 min at −20° C. After permeabilization with 0.1% of saponin, cells were incubated for 2 hours with: • (a) chicken polyclonal antibody anti microtubule-associated-protein 2 (MAP-2), diluted at 1/1000 in PBS containing 1% fetal calf serum and 0.1% of saponin (this antibody allows the specific staining of neuronal cell bodies and neurites; and allow the study of neuronal cell death and neurite network); and • (b) mouse monoclonal antibody anti-phospho Tau (AT100) at dilution of 1/400 in PBS containing 1% fetal calf serum and 0.1% of saponin.
For each condition, multiple pictures (representative of the whole well area) per well were taken using ImageXpress (Molecular Devices) at 20× magnification. All images were taken with the same acquisition parameters. Analyses were performed automatically by using Custom Module Editor® (Molecular Devices). […]

Structure (SMILES)	Hyperphosphorylation of Tau (AT100) ([1]; Donepezil 1 μM)	Number of synapses (overlapping PSD95/SYN) ([2]; Donepezil 1 μM)	Neuronal survival (number of MAP-2 positive neurons) ([3]; Aβ 20 μM 24 h, Donepezil 1 μM, FIG. 2A)	Total neurite network (MAP-2 positive neurons) ([3]; Aβ 20 μM 24 h, Donepezil 1 μM, FIG. 2B)	Neurite length per neuron (total neurite network normalized by the number of neurons) ([3]; Aβ 20 μM 24 h, Donepezil 1 μM)	Hyperphosphorylation of Tau (AT100) ([1]; bambuterol all investigated doses (1 nM to 1 μM))	Dose of maximal effect on hyperphosphorylation of Tau ([1]; bell-shape curve)	Number of synapses (overlapping PSD95/SYN) ([2]; bambuterol from 10 nM to 100 nM)	Total neurite network (MAP-2 positive neurons) ([3]; Aβ 20 μM 24 h, all investigated doses of bambuterol (1 nM to 1 μM), FIG. 2B)	Neurite length per neuron (total neurite network normalized by the number of neurons) ([3]; Aβ 20 μM 24 h, bambuterol 1 nM to 1 μM)	Neuronal survival (number of MAP-2 positive neurons) ([3]; Aβ 20 μM 24 h, bambuterol highest doses 500 nM and 1 μM, FIG. 2A)	Neuronal survival (number of MAP-2 positive neurons) ([3]; Aβ 20 μM 24 h, bambuterol low doses 1 nM to 100 nM, preincubated 1 h, FIG. 2A)	Dose of maximal effect on neurite network ([3]; Aβ 20 μM 24 h, bell-shape curve, FIG. 2B)	Dose of maximal effect on neuronal survival ([3]; Aβ 20 μM 24 h, bell-shaped curve, FIG. 2A)	Effects of bambuterol compared with Donepezil (summary of the examples) ([3]; bambuterol at a dose of 10 nM, hippocampal neurons injured with Aβ 1-42, overall statement over all readouts)
COc1cc2c(cc1OC)C(=O)C(CC1CCN(Cc3ccccc3)CC1)C2 (stereo not drawn) [Donepezil]	significantly mitigate this hyperphosphorylation	mitigated the loss of synapses	significantly protect neurons from death	significantly preserved almost the whole neurite network	longer	–	–	–	–	–	–	–	–	–	–
CN(C)C(=O)Oc1cc(OC(=O)N(C)C)cc(C(O)CNC(C)(C)C)c1 (stereo not drawn) [bambuterol]	–	–	–	–	–	significantly reduced the hyperphosphorylation of Tau	10 nM	able to preserve the number of synapses	exerted protective effects on the neurite network	did not change this parameter	did not show any protective effect	significant neuroprotective effects to a similar or higher extent to donepezil	10 nM	10 nM	comparable, and even greater, to those of Donepezil
